Test: Volume-average particle diameter of benzbromarone nanoparticles (Nanotrac particle size distribution), Example 2-2
Assay type: physicochemical
Conditions: ethanol solution of 3% benzbromarone/0.1% Tween 80 into pure water
Description: Particle size distribution was measured by using a Nanotrac particle size distribution measurement instrument (UPA-EX150, manufactured by Nikkiso Co., Ltd.), and the volume-average particle diameter was taken. An ethanol solution in which benzbromarone and Tween 80 (dispersant) were dissolved with the concentrations thereof being 3% for benzbromarone and 0.1% for Tween 80 was introduced as a second fluid into between the processing surfaces 1 and 2 at a rate of 10 mL/minute, together with pure water as a first fluid from the center at supply pressure of 0.25 MPa, a rotation speed of 700 rpm, and a rate of 200 g/minute, whereby the two fluids were mixed. The dispersion solution of benzbromarone was discharged. Temperature conditions of the first fluid and the second fluid, and results of particle size distribution of the obtained dispersion solution are shown in Table 3. The particle diameters of nanoparticles obtained in respective conditions were confirmed by a transmission electron microscope (TEM); it was confirmed that the particle diameter confirmed by the TEM picture was identical to the measurement result of the particle size distribution. The SEM picture of the nanoparticles obtained under the temperature conditions of 25° C. for the first fluid and 25° C. for the second fluid (ΔT=0° C.) is shown in FIG. 17; and the TEM picture of the nanoparticles obtained under the temperature conditions of 5° C. for the first fluid and 35° C. for the second fluid (ΔT=30° C.) is shown in FIG. 18, respectively.

Compound CCc1oc2ccccc2c1C(=O)c1cc(Br)c(O)c(Br)c1 [benzbromarone] has a Volume-average particle diameter (T1 5°C, T2 5°C, ΔT 0) of 229.3 nm, a Volume-average particle diameter (T1 5°C, T2 8°C, ΔT 3) of 204.6 nm and a Volume-average particle diameter (T1 5°C, T2 10°C, ΔT 5) of 51.3 nm. It also gave a Volume-average particle diameter (T1 5°C, T2 35°C, ΔT 30) of 58.6 nm and a Volume-average particle diameter (T1 25°C, T2 25°C, ΔT 0) of 208.4 nm.
